Source: patent publication US10048254B2, “Cyclic-di-AMP specific detection” (priority 2013, dated 2018)

What was measured:
CabP [1] = target: T1, CabP (Streptococcus pneumoniae, UniProt A0A0H2ZNB5); assay: Competition of unlabeled nucleotides with labeled c-di-AMP for CabP, native gel; assay type: binding; conditions: 1,000-fold excess of unlabeled nucleotide, 1 μM CabP, FIG. 2D
Method: FIGS. 2A-D Interaction of CabP with c-di-AMP. (A) CabP and PdxR (control) were loaded for SDS-PAGE. Gels were either stained with Coomassie Bright Blue (Staining) or blotted with labeled c-di-AMP (Blotting). M, molecular weight marker (Fisher Scientific). (B) Separation of CabP and c-di-AMP reactions with 8% native gel. (C) Mobility of c-di-AMP in the presence or absence of the indicated proteins. (D) Mobility of labeled c-di-AMP mixed with 1 μM CabP in the presence or absence of the indicated unlabeled nucleotides. “cold nt” refers to unlabeled nucleotide.
(§1) The interaction between CabP and c-di-AMP was evaluated by multiple approaches. […] Proteins in the other half gel were transferred onto PVDF membrane and incubated with [α-^32P]c-di-AMP, which we generated from [α-^32P]ATP (MP Biomedicals) using purified Mycobacterium tuberculosis DacA (2). […] We then incubate labeled c-di-AMP with various concentration of CabP in the reaction with 50 mM Tris-HCl (pH7.5), 10 mM MgCl2, 5 mM CaCl2, 5 mM KCl, and 10% (v/v) glycerol. The samples were incubated for 30 min at room temperature and then separated the reactions with 8% native PAGE gel (3). […] However, the mobility of c-di-AMP was not retarded by PdxR (FIG. 2C), indicating the specificity.

PdxR [2] = assay: Mobility retardation of labeled c-di-AMP in 8% native PAGE gel (control protein); assay type: binding; conditions: FIG. 2C
M. tuberculosis DacA = M. tuberculosis DacA (Mycobacterium tuberculosis, UniProt P9WNW5); assay: Mobility retardation of labeled c-di-AMP in 8% native PAGE gel; assay type: binding; conditions: purified M. tuberculosis DacA, FIG. 2C
M. tuberculosis DacA, sequence (P9WNW5 whole entry): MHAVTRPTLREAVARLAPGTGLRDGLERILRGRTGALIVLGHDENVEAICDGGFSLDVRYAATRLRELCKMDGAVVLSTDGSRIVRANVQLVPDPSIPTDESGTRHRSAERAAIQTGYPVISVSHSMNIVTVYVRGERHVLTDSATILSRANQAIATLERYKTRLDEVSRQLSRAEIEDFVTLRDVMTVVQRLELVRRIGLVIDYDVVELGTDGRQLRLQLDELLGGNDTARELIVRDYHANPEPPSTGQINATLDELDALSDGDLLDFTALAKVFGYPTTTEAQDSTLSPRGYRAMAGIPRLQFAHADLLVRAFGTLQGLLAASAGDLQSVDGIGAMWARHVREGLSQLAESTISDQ
Method: as §1

CabP [3] = target: T1, CabP; assay: as above; assay type: binding; conditions: 30 min at room temperature, FIG. 2B, read-out: affinity constant
Method: as §1

biotin-labeled c-di-AMP = assay: Binding of truncated forms of CabP to biotin-labeled c-di-AMP; conditions: proteins expressed from pET28a(+)
From the text: To investigate the c-di-AMP binding region of CabP, truncated forms of CabP were expressed and their ability to bind c-di-AMP examined.
Truncated forms included: P1, in which 15 amino acids were removed from the N-terminal of CabP; P2, which results from the removal of 94 amino acid residues from the C-terminal of CabP, thereby eliminating the TrkA_C region; and P3, in which both N- and C-terminal ends of CabP are truncated.
All PCR products were cloned into pET28a(+) to express P1, P2, and P3. These proteins were then used to evaluate their interaction with c-di-AMP.
No binding of P1, P2 or P3 was observed using biotin-labeled c-di-AMP, while binding to intact CabP expressed from pST2788 was normal.

CabP [4] = target: T1, CabP; assay: Blot of SDS-PAGE-separated protein on PVDF membrane incubated with [α-32P]c-di-AMP; assay type: binding; conditions: FIG. 2A
Method: as §1

PdxR [5] = assay type: binding; conditions: PdxR control on PVDF membrane, FIG. 2A
CabP [6] = target: T1, CabP; assay: ELISA on CabP-coated plate, optimization of biotin-AHC-c-di-AMP concentration; assay type: binding
Method: The binding of c-di-AMP by CabP is very specific with good affinity, therefore, an ELISA method using a solid support coated with CabP to detect c-di-AMP was developed (FIG. 4). The coating concentration of CabP (Table 1) and the concentration of biotin-AHC-c-di-AMP (Table 2) were optimized.
In one embodiment, a 96-well microtiter plate was coated with CabP at 50 μg/ml in coating buffer (3.03 g/L Na2CO3 and 6.0 g/L NaHCO3), 100 μl/well, sealed and incubated overnight at 4° C.
The coating solution was removed by washing three times, that is, by filling the wells with 200 μl phosphate buffered saline (PBS) containing 0.05% (v/v) polysorbate 20 (TWEEN®-20), and aspirating.
The wells of the microtiter plate were then blocked with a blocking solution (1% BSA in PBS), 100 μl/well, and the plate incubated 1 h at room temperature.
To remove the blocking solution, the plates were washed 3 times with PBS containing 0.05% (v/v) polysorbate 20 (TWEEN®-20). 25 nM biotin-labeled c-di-AMP was diluted in 50 mM Tris-HCl (pH 8.0) or other appropriate media/solution and mixed with two-fold serial diluted standards (from 200 nM to 6.25 nM), or samples prepared within 50 mM Tris-HCl (pH 8.0) or the same media/solution. 100 μl/well, incubate 2 h at room temperature.
The standards and the samples were removed, and the wells washed 3 times with PBS containing 0.05% (v/v) polysorbate 20 (TWEEN®-20).
Streptavidin-HRP (Thermo Scientific) diluted at 1:10,000 with PBS containing 0.05% (v/v) polysorbate 20 (TWEEN®-20), was added to the wells, 100 μl/well, and the plate incubated 1 h at room temperature.
The streptavidin-HRP solution was removed by washing the wells 3 times with PBS containing 0.05% (v/v) polysorbate 20 (TWEEN®-20).
A substrate solution [20 ml 0.1 M citric acid (pH 5.0), 20 μl 30% H2O2, and 10 mg o-phenylenediamine (OPD) (Sigma, 1 tablet)], 100 μl/well, was added to each well. After approximately 30 minutes (typical) or sufficient color development, 100 μl/well stop solution (2 N H2SO4) was added to each well. The absorbance of each well was read with a plate reader at 492 nm.

T1 sequence (A0A0H2ZNB5 whole entry, added parts left off): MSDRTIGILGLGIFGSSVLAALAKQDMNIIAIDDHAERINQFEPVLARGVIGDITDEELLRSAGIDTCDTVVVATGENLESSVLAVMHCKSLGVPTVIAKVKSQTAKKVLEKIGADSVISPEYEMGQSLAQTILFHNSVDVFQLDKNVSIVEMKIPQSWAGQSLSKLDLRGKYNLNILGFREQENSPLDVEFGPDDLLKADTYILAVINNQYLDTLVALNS

## Nc1ncnc2c1ncn2[C@@H]1O[C@@H]2COP(=O)(O)O[C@H]3[C@@H](O)[C@H](n4cnc5c(N)ncnc54)O[C@@H]3COP(=O)(O)O[C@H]2[C@H]1O [c-di-AMP, cyclic di-adenosine monophosphate]
CabP [1]
  free labeled c-di-AMP in the presence of unlabeled nucleotide: free c-di-AMP could be observed
PdxR [2]
  retardation of c-di-AMP mobility: not retarded
M. tuberculosis DacA
  retardation of c-di-AMP mobility: retardation was also observed
CabP [3]
  Kd: ~150 nM

## CabP
biotin-labeled c-di-AMP
  binding to biotin-labeled c-di-AMP: normal

## [α-^32P]c-di-AMP [labeled c-di-AMP]
CabP [4]
  binding of labeled c-di-AMP to blotted protein: bound
PdxR [5]
  binding of labeled c-di-AMP to blotted protein: not

## biotin-AHC-c-di-AMP [B-c-di-AMP]
CabP [6]; [B-c-di-AMP] 0.78125
  ELISA signal, Binding Buffer: 0.158
CabP [6]; [B-c-di-AMP] 1.5625
  ELISA signal, Binding Buffer: 0.2503
CabP [6]; [B-c-di-AMP] 3.125
  ELISA signal, Binding Buffer: 0.4685
CabP [6]; [B-c-di-AMP] 6.25
  ELISA signal, Binding Buffer: 0.7071
CabP [6]; [B-c-di-AMP] 12.5
  ELISA signal, Binding Buffer: 0.8821
CabP [6]; [B-c-di-AMP] 25
  ELISA signal, Binding Buffer: 1.1813
CabP [6]; [B-c-di-AMP] 50
  ELISA signal, Binding Buffer: 1.352
CabP [6]; [B-c-di-AMP] 100
  ELISA signal, Binding Buffer: 1.4377
